From patent publication US20220079194A1, “EXTRUDATE FOOD COMPOSITIONS COMPRISING CULTIVATED ANIMAL CELLS AND METHODS OF PRODUCTION THEREOF” (GOOD Meat, Inc., priority 2020, published 2022)

Experiments:
C1F chicken cells = assay: Alternative sugars as carbon source for C1F suspension cultures; format: cell-based; conditions: for viable cell density at peak: 3 g/L sugar from day 0, batch, day 3, 1.25% FBS
Method: We evaluated the impact of alternative sugars (mannose, fructose and galactose) on the growth and metabolism of an in-house C1F chicken cells grown in suspension cultures containing 1.25% FBS. Specific net growth rate (uN) and Specific glucose consumption rate (qGluc) or specific lactate production rate (qLac) were calculated according to equation 1 or 2 as disclosed in Example 12.
Suspension cultures as described herein were cultivated using 3 g/L of the respective sugars were added from day 0 and cultured in a batch mode up to day 3. On day 3 after sampling, an additional 3 g/L of each sugar was added to the respective flasks. By day 3, at the peak cell density, flasks that used glucose as carbon source had the highest viable cell density (˜2.805×10^6 cells/mL), followed by flasks with mannose (˜2.40×10^6 cells/mL), then fructose (1.935×10^6 cells/mL) and lastly galactose (0.915×10^6 cells/mL).
Since we observed that the C1F cells could utilize fructose as a carbon source, we evaluated the effect of different starting concentration of fructose. In one experiment, 6 g/L of fructose was added to one set of duplicate flasks from day 0, and 3 g/L of fructose added each to another set of duplicate flasks from day 0. In the flasks starting with 3 g/L of fructose, an additional 3 g/L of fructose was added on day 1 of one of the duplicates and day 2 of the other duplicate.
We next evaluated the effect of combining glucose, mannose and fructose on growth and lactate production. Using a design-of-experiment (DOE) approach, 17 batch shake flask runs were carried out evaluating varying combinations of concentrations of glucose, mannose and fructose as energy sources for suspension chicken C1F cells. The experimental design used included 3 factors (glucose, mannose and fructose) and 4 levels (0, 0.5, 1.5 and 3.0 g/L). By day 3, cells with the base carbon sources 3.0 glucose/0.5 fructose/0.5 mannose had the highest viable cell density (VCD) of 3.8×10^6 cell/mL, followed by 3.0 glucose/0.0 fructose/3.0 mannose and 3.0 glucose/3.0 fructose/3.0 mannose. […]

C1F cells [1] = assay: Sodium oxamate treatment of C1F suspension culture (lactate, glucose, growth); format: cell-based, chicken; conditions: 10, 15, 20 and 30 mM, 3-day batch cell culture
C1F cells [2] = assay: as above; format: cell-based, chicken
Method: […] cells were cultivated in suspension culture supplemented with 1.25% bovine serum. Different concentrations of sodium oxamate were tested: 1, 3, 5, 10, 30, 60, 100, and 200 mM, and production of lactate, glucose consumption, cell growth rates and cell density were measured. The specific rates were calculated using daily viable cell concentration and metabolite concentrations for the duration of the cell culture. Specific net growth rates (UN) were calculated as a change in VCD over a time interval t1 to t2 using equation (1): Specific glucose consumption rate (qGluc) or specific lactate production rate (qLac) were determined using equation (2), where P is glucose or lactate concentration: Viable cell density (VCD) and viability were determined by the trypan blue exclusion method using the Vi-cellTM (Beckman Coulter) from 1 mL daily samples taken from shake flask cell culture. Gas and pH values including metabolite (glucose, lactate glutamine, glutamate, ammonium) concentrations were measured using the Bioprofile Flex analyzer (Nova Biomedical). Osmolality was measured using the OsmoPro Multi-Sample Micro-Osmometer (Advanced Instruments) which employs the freezing point technology. To further examine if the effects of oxamate remained similar in cell culture with metabolic by-products already present, we passaged cells treated with 30 mM oxamate using a 1:3 (v/v) split with fresh media (1⁄3 of the volume of spent media and 2⁄3 of fresh media). Having been used in culture for several days, carried over media invariably contains residual amounts (carryover) of metabolites resultant from cell consumption.

| SMILES | viable cell density at peak (C1F chicken cells) | lactate accumulation, higher by day 3 (C1F chicken cells; 6 g/L from day 0 vs 3 g/L from day 0 plus 3 g/L later) [%] | decrease in lactate production (C1F cells [1]) | reduction in lactate production (C1F cells [2]; 10 mM, day 2, C1F-SCM batch shake flasks, vs control, p<0.05) [%] | cell viability and osmolality of the media (C1F cells [2]; 30 mM) | specific glucose consumption (qGluc) (C1F cells [2]; 30 mM) | increase in maximum viable cell density (C1F cells [2]; 30 mM vs control) [%] | ammonium accumulation (C1F cells [2]; 30 mM, between days 3 and 5, relative to non-treated control) | reduction in cumulative lactate production (C1F cells [2]; 30 mM, by day 5, vs control group) [%] | peak viable cell density (C1F cells [2]; 30 mM, day 5, passaged 1:3 with spent media carryover) | lactate production (C1F cells [2]; 30, 60, 100 and 200 mM, 3-day batch culture) | lactate production vs control (C1F cells [2]; other concentrations tested (1, 3, 5 mM), day 2, C1F-SCM batch) |
| --- | --- | --- | --- | --- | --- | --- | --- | --- | --- | --- | --- | --- |
| O=C(CO)[C@@H](O)[C@H](O)[C@H](O)CO [fructose] | 1.935×10^6 cells/mL | 36 | – | – | – | – | – | – | – | – | – | – |
| O=C[C@H](O)[C@@H](O)[C@@H](O)[C@H](O)CO [galactose] | 0.915×10^6 cells/mL | – | – | – | – | – | – | – | – | – | – | – |
| NC(=O)C(=O)[O-].[Na+] [oxamate, sodium oxamate] | – | – | about 52% | 28 | not compromised | decreased | ~44 | spiked out | ~23 | 2.79×10^6 cells/mL | concentration-dependent decrease | appreciable decrease in lactate production |
